Data: patent US20110082130A1 (LIGAND PHARMACEUTICALS, INC., priority 2006, published 2011)

The molecules below were run against T1, chimeric human H3 receptor (Homo sapiens, UniProt Q9Y5N1) (assay: Chimeric human H3 receptor GTP binding assay (agonist-stimulated GTP-gamma35S binding, Example 7)). Conditions: Table I; P2 membranes of Sf9 cells, 1 μM histamine as agonist, Ki from IC50 by Cheng-Prusoff.
T1 construct: made in house; host or cells: Sf9 insect cells (baculovirus); P2 membrane preparation
T1 sequence (Q9Y5N1 with tags, fused parts or gaps): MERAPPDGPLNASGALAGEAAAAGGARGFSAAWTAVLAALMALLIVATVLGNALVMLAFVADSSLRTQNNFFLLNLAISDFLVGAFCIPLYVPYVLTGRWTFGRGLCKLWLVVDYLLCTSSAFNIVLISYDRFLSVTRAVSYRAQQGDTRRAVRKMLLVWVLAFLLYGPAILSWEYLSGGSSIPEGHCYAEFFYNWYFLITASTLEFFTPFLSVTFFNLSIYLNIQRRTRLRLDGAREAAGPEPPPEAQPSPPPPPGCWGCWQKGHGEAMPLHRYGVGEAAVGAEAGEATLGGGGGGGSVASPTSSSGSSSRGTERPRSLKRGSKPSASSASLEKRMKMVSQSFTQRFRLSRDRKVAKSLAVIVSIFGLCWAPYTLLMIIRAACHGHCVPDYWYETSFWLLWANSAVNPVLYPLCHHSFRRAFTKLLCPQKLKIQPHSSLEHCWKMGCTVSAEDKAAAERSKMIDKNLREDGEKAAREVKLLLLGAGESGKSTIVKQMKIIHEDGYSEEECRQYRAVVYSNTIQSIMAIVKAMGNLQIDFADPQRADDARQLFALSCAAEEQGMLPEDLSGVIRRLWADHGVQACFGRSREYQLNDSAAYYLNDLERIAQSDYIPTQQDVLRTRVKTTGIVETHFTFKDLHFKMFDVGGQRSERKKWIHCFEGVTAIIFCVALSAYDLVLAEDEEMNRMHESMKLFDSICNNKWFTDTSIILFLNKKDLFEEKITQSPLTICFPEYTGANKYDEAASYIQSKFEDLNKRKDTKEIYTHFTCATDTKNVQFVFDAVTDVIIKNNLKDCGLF
Assay type: biochemical
In short: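 Sf9 membranes co-expressing chimeric human H3 receptor and heterotrimeric G-protein, 35 μg/tube, in pH 7.4 Tris buffer with 10 μM GDP. Test compounds (10^−10–10^−6 M) competed against 1 μM histamine, […] GTP-gamma35S, 60 min at room temperature. Filter-bound radioactivity counted; IC50 converted to Ki by Cheng-Prusoff. Agonism/inverse agonism tested without histamine (EC50).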
With `CCC(=O)c1ccc2c(c1)CCN(CC(=O)N1CCN(C3CCC3)CC1)C2` [Compound 73, 1-{2-[2-(4-cyclobutylpiperazin-1-yl)-2-oxoethyl]-1,2,3,4-tetrahydroisoquinolin-6-yl}propan-1-one] the Ki was under 1000 nM.

Same assay, conditions: Table II "Ki", symbol *; assay of Example 7
Molecule `N#CCC1CCN(c2ccc3c(n2)CCN(CC(=O)N2CCN(C4CCC4)CC2)C3)CC1` [Compound 675, (1-{6-[2-(4-cyclobutylpiperazin-1-yl)-2-oxoethyl]-5,6,7,8-tetrahydro-1,6-naphthyridin-2-yl}piperidin-4-yl)acetonitrile] has a Ki of under 1000 nM. Work on `CN(c1ccc2c(n1)CCN(CC(=O)N1CCN(C3CCC3)CC1)C2)C1CCCCC1` [Compound 677, 6-[2-(4-cyclobutylpiperazin-1-yl)-2-oxoethyl]-N-cyclohexyl-N-methyl-5,6,7,8-tetrahydro-1,6-naphthyridin-2-amine] yielded a Ki of under 1000 nM. Molecule `COc1ccc(-c2ccc3c(c2)CCN(CC(=O)N2CCN(C4CCCC4)CC2)C3)cc1OC` [Compound 525, 2-[2-(4-cyclopentylpiperazin-1-yl)-2-oxoethyl]-6-(3.4-dimethoxyphenyl)-1,2,3,4-tetrahydroisoquinoline] has a Ki of under 1000 nM. `COc1ccc(-c2ccc3c(c2)CCN(CC(=O)N2CCN(C(C)C)CC2)C3)cc1OC` [Compound 527, 6-(3,4-dimethoxyphenyl)-2-[2-(4-isopropylpiperazin-1-yl)-2-oxoethyl]-1,2,3,4-tetrahydroisoquinoline] showed a Ki of under 1000 nM. `O=C(CN1CCc2cc(-c3ccc(C(F)(F)F)cn3)ccc2C1)N1CCN(C2CCC2)CC1` [Compound 632, 2-[2-(4-cyclobutylpiperazin-1-yl)-2-oxoethyl]-6-[5-(trifluoromethyl)pyridin-2-yl]-1,2,3,4-tetrahydroisoquinoline] showed a Ki of under 1000 nM. `COC[C@H]1CCCN1c1ccc2c(n1)CCN(CC(=O)N1CCN(C3CCC3)CC1)C2` [Compound 679, 6-[2-(4-cyclobutylpiperazin-1-yl)-2-oxoethyl]-2-[(2R)-2-(methoxymethyl)pyrrolidin-1-yl]-5,6,7,8-tetrahydro-1,6-naphthyridine] showed a Ki of under 1000 nM.

Same assay, conditions: Table II; "*" = Ki in assay of Example 7 less than 1 micromolar
`COCCN(C)c1ccc2c(n1)CCN(CC(=O)N1CCN3C(C)CCC[C@H]3C1)C2` (stereo in doubt) [Compound 181, N-(2-methoxyethyl)-N-methyl-6-[2-(6-methyloctahydro-2H-pyrido[1,2-a]pyrazin-2-yl)-2-oxoethyl]-5,6,7,8-tetrahydro-1,6-naphthyridin-2-amine] showed a Ki of under 1000 nM. For `O=C(CN1CCc2nc(OC3CCCC3)ccc2C1)N1CCN(C2CCC2)CC1` [Compound 185, 6-[2-(4-cyclobutylpiperazin-1-yl)-2-oxoethyl]-2-(cyclopentyloxy)-5,6,7,8-tetrahydro-1,6-naphthyridine], the Ki was under 1000 nM. `CC(=O)c1ccc2c(c1)CCN(CC(=O)N1CCN3CCCCC3C1)C2` (stereo not drawn) [Compound 154, 1-{2-[2-(octahydro-2H-pyrido[1,2-a]pyrazin-2-yl)-2-oxoethyl]-1,2,3,4-tetrahydroisoquinolin-6-yl}ethanone] was tested, and the Ki was under 1000 nM. With `O=C(CN1CCc2[nH]c(=O)ccc2C1)N1CCN(C2CCCCC2)CC1` [Compound 136, 6-[2-(4-cyclohexylpiperazin-1-yl)-2-oxoethyl]-5,6,7,8-tetrahydro-1,6-naphthyridin-2(1H)-one] the Ki was under 1000 nM. Molecule `O=C(CN1CCc2nc(N3CCC(F)(F)CC3)ccc2C1)N1CCN(C2CCC2)CC1` [Compound 183, 6-[2-(4-cyclobutylpiperazin-1-yl)-2-oxoethyl]-2-(4,4-difluoropiperidin-1-yl)-5,6,7,8-tetrahydro-1,6-naphthyridine] has a Ki of under 1000 nM. `O=C(CN1CCc2nc(-c3ccccc3)ncc2C1)N1CCN(C2CCC2)CC1` [Compound 247, 6-[2-(4-cyclobutylpiperazin-1-yl)-2-oxoethyl]-2-phenyl-5,6,7,8-tetrahydropyrido[4,3-d]pyrimidine] showed a Ki of under 1000 nM. `CC1(N2CCN(C(=O)CN3CCc4cc(-c5cncnc5)ccc4C3)CC2)CCC1` [Compound 169, 2-{2-[4-(1-methylcyclobutyl)piperazin-1-yl]-2-oxoethyl}-6-pyrimidin-5-yl-1,2,3,4-tetrahydroisoquinoline] was tested, and the Ki was under 1000 nM. `O=C(CN1CCc2cc(Br)ccc2C1)N1CCN2CCCCC2C1` (stereo not drawn) [Compound 148, 2-[(6-bromo-3,4-dihydroisoquinolin-2(1H)-yl)acetyl]octahydro-2H-pyrido[1,2-a]pyrazine] was tested, and the Ki was under 1000 nM. `CC1CCC[C@H]2CN(C(=O)CN3CCc4cc(-n5cccn5)ccc4C3)CCN12` (stereo in doubt) [Compound 152, 6-methyl-2-{[6-(1H-pyrazol-1-yl)-3,4-dihydroisoquinolin-2(1H)-yl]acetyl}octahydro-2H-pyrido[1,2-a]pyrazine] gave a Ki of under 1000 nM. With `O=C(CN1CCc2cc(Br)ccc2C1)N1CCN(C2CCC2)CC1` [Compound 118, 6-bromo-2-[2-(4-cyclobutylpiperazin-1-yl)-2-oxoethyl]-1,2,3,4-tetrahydroisoquinoline] the Ki was under 1000 nM. For `O=C(CN1CCc2[nH]c(=O)ccc2C1)N1CCN(C2CCC2)CC1` [Compound 134, 6-[2-(4-cyclobutylpiperazin-1-yl)-2-oxoethyl]-5,6,7,8-tetrahydro-1,6-naphthyridin-2(1H)-one], the Ki was under 1000 nM. Molecule `COCCN(C)c1ccc2c(n1)CCN(CC(=O)N1CCN(C3CCC3)CC1)C2` [Compound 184, 6-[2-(4-cyclobutylpiperazin-1-yl)-2-oxoethyl]-N-(2-methoxyethyl)-N-methyl-5,6,7,8-tetrahydro-1,6-naphthyridin-2-amine] has a Ki of under 1000 nM. `Cn1cc(-c2cc3c(s2)CCN(CC(=O)N2CCN(C4CCC4)CC2)C3)ccc1=O` [Compound 270, 5-{5-[2-(4-cyclobutylpiperazin-1-yl)-2-oxoethyl]-4,5,6,7-tetrahydrothieno[3,2-c]pyridin-2-yl}-1-methylpyridin-2(1H)-one] gave a Ki of under 1000 nM. `O=C(CN1CCc2nn(-c3ccc(N4CCCC4)nn3)cc2C1)N1CCN(C2CCC2)CC1` [Compound 258, 5-[2-(4-cyclobutylpiperazin-1-yl)-2-oxoethyl]-2-(6-pyrrolidin-1-ylpyridazin-3-yl)-4,5,6,7-tetrahydro-2H-pyrazolo[4,3-c]pyridine] showed a Ki of under 1000 nM. `O=C(CN1CCc2cc(-n3cncn3)ccc2C1)N1CCN(C2CCC2)CC1` [Compound 207, 2-[2-(4-cyclobutylpiperazin-1-yl)-2-oxoethyl]-6-(1H-1,2,4-triazol-1-yl)-1,2,3,4-tetrahydroisoquinoline] was tested, and the Ki was under 1000 nM. `O=C(CN1CCc2nc(N3CCOCC3)ncc2C1)N1CCN(C2CCCC2)CC1` [Compound 140, 6-[2-(4-cyclopentylpiperazin-1-yl)-2-oxoethyl]-2-morpholin-4-yl-5,6,7,8-tetrahydropyrido[4,3-d]pyrimidine] was tested, and the Ki was under 1000 nM.

Same assay, conditions: assay of Example 7; "*" in Ki of Table II
Work on `Cc1cc(-c2nc3c(s2)CN(CC(=O)N2CCN(C4CCC4)CC2)CC3)ccc1F` [Compound 303, 5-[2-(4-cyclobutylpiperazin-1-yl)-2-oxoethyl]-2-(4-fluoro-3-methylphenyl)-4,5,6,7-tetrahydro[1,3]thiazolo [5,4-c]pyridine] yielded a Ki of under 1000 nM. With `O=C(CN1CCc2nc(-c3ccccc3F)sc2C1)N1CCN(C2CCC2)CC1` [Compound 299, 5-[2-(4-cyclobutylpiperazin-1-yl)-2-oxoethyl]-2-(2-fluorophenyl)-4,5,6,7-tetrahydro[1,3]thiazolo [5,4-c]pyridine] the Ki was under 1000 nM. Work on `O=C(CN1CCc2nc(-c3ccc4ccccc4c3)sc2C1)N1CCN(C2CCC2)CC1` [Compound 300, 5-[2-(4-cyclobutylpiperazin-1-yl)-2-oxoethyl]-2-(2-naphthyl)-4,5,6,7-tetrahydro[1,3]thiazolo [5,4-c]pyridine] yielded a Ki of under 1000 nM. In the case of `COc1ccc(-c2ccc(-c3nc4c(s3)CN(CC(=O)N3CCN(C5CCC5)CC3)CC4)cc2)cc1` [Compound 321, 5-[2-(4-cyclobutylpiperazin-1-yl)-2-oxoethyl]-2-(4′-methoxybiphenyl-4-yl)-4,5,6,7-tetrahydro[1,3]thiazolo [5,4-c]pyridine], the Ki is reported as under 1000 nM. `COc1ccc(-c2ccc3c(c2)CCN(CC(=O)N2CCN(C(C)C)CC2)C3)cn1` [Compound 386, 2-[2-(4-isopropylpiperazin-1-yl)-2-oxoethyl]-6-(6-methoxypyridin-3-yl)-1,2,3,4-tetrahydroisoquinoline] gave a Ki of under 1000 nM. `O=C(CN1CCc2cc(-c3cncnc3)ccc2C1)N1CCN(C2CCCC2)CC1` [Compound 392, 2-[2-(4-cyclopentylpiperazin-1-yl)-2-oxoethyl]-6-pyrimidin-5-yl-1,2,3,4-tetrahydroisoquinoline] gave a Ki of under 1000 nM. `COc1ccc(-c2nc3c(s2)CN(CC(=O)N2CCN(C4CCC4)CC2)CC3)cc1OC` [Compound 329, 5-[2-(4-cyclobutylpiperazin-1-yl)-2-oxoethyl]-2-(3,4-dimethoxyphenyl)-4,5,6,7-tetrahydro[1,3]thiazolo [5,4-c]pyridine] showed a Ki of under 1000 nM. `Cc1ccc(-n2ncc3c2CCN(CC(=O)N2CCN(C4CCC4)CC2)C3)nn1` [Compound 288, 5-[2-(4-cyclobutylpiperazin-1-yl)-2-oxoethyl]-1-(6-methylpyridazin-3-yl)-4,5,6,7-tetrahydro-1H-pyrazolo[4,3-c]pyridine] was tested, and the Ki was under 1000 nM. With `CCCOc1ccc(-c2nc3c(s2)CN(CC(=O)N2CCN(C4CCC4)CC2)CC3)cc1` [Compound 334, 5-[2-(4-cyclobutylpiperazin-1-yl)-2-oxoethyl]-2-(4-propoxyphenyl)-4,5,6,7-tetrahydro[1,3]thiazolo [5,4-c]pyridine] the Ki was under 1000 nM. With `COc1ccc(-c2nc3c(s2)CN(CC(=O)N2CCN(C4CCC4)CC2)CC3)c(OC)c1` [Compound 340, 5-[2-(4-cyclobutylpiperazin-1-yl)-2-oxoethyl]-2-(2,4-dimethoxyphenyl)-4,5,6,7-tetrahydro[1,3]thiazolo [5,4-c]pyridine] the Ki was under 1000 nM.
